The subject of data set [1] is N-acetyl transferase (NAT). In words: NAT metaprobe 13C recovery in human urine. The class given is in vivo. How it is done: The tracers were ingested each time with 100 ml of a 10% aqueous solution of high fructose corn syrup. Urine samples were collected at 12, 24 and 36 hours. […] The analysis of each urine sampling interval was carried out in triplicate and the variation among replicates fell within 15%. […] Also, since aspartyl-N-acetyl-glucosamine pyranoside is rapidly synthesized and subsequently turned over by lysozomes, its rate of appearance in plasma can be determined, along with the plasma rate of appearance of N-acetylglucosamine, at shorter intervals post dosing. Thus, the MRI2 index could be computed within reach of the two-hour preferred sampling time frame for the practicable implementation of diagnostic procedures with metaprobes.

The test system of data set [2] is N-acetyl transferase (NAT). The data set is described as follows: NAT metaprobe 13C recovery in urinary glucosamine fraction. The format is in vivo, Sprague-Dawley rats. Particulars: 5 mg/kg by gastric intubation, 24 hour urine, bile acid glucosamine fraction.
From the text: (§1) In the first experiment, six male Sprague-Dawley rats, weighing on average 300 grams, were studied while awake and unstressed after an overnight fast. […] Food and water were then given ad libitum. After receiving the metaprobes, the animals were kept in metabolic cages to facilitate collection of urine (Robinson, 1968).
The subject of data set [3] is glutamine-fructose-6-phosphate aminotransferase (GFAT). Particulars: rat, in vivo.
From the text: as §1
The target of data set [4] is T1, Prolyl oligopeptidase (PO) (Homo sapiens, UniProt P48147).
T1 sequence (P48147 1-710): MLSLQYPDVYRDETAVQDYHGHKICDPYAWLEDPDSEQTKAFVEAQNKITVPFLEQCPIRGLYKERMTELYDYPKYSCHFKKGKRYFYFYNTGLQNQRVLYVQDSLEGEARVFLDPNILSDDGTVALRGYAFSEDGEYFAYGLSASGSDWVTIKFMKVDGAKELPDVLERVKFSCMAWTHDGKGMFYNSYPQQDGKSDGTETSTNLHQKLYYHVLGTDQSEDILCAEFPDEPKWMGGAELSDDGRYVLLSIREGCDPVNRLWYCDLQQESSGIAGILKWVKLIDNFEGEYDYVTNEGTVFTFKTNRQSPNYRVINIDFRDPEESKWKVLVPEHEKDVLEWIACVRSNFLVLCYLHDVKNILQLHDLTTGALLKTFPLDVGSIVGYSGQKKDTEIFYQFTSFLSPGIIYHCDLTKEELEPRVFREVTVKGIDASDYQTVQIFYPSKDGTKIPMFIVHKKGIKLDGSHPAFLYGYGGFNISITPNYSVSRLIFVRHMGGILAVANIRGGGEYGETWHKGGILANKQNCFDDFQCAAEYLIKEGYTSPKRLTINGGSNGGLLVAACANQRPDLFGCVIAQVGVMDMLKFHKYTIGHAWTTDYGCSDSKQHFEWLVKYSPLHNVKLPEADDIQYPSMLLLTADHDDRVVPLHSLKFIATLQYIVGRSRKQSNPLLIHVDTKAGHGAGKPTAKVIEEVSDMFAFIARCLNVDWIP
In words: prolyl oligopeptidase metaprobe hydrolysis in bronchoalveolar lavage fluid. The format is biochemical. Particulars: Human BAL.

Data set [5] has as its target T2, Prolyl oligopeptidase (PO) (Rattus norvegicus, UniProt O70196).
T2 sequence (O70196 1-710): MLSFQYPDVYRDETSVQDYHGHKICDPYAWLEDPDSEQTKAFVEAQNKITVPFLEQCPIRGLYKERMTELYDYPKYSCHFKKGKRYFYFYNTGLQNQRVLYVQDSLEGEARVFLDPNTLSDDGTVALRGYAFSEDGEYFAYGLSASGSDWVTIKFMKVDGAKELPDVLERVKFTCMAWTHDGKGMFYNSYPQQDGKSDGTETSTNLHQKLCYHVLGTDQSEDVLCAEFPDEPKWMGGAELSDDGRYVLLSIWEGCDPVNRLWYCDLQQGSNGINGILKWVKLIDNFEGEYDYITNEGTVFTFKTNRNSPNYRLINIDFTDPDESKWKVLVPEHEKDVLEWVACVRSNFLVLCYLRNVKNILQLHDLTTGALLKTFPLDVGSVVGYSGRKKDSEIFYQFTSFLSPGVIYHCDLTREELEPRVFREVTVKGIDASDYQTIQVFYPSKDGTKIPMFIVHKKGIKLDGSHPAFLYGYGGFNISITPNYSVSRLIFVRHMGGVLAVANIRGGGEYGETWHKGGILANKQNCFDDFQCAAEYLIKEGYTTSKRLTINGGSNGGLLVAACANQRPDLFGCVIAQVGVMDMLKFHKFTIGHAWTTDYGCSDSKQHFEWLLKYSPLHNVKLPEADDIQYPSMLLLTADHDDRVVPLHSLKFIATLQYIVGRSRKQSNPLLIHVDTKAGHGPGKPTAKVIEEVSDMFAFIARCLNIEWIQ
In words: prolyl oligopeptidase metaprobe hydrolysis in rat plasma, brain and lung preparations. The class given is biochemical.

`CC(=O)N[C@@H]1[C@@H](O)[C@H](O)[C@@H](CO)O[13CH]1O` (some centres unmarked) [N-acetyl-1-^13C-glucosamine]: the results for the “13C % Dose” value in data set [1] (time point 12 hr), in data set [1] (time point 24 hr) and in data set [1] (time point 36 hr) were “.089 % Dose”, “.189 % Dose” and “.213 % Dose”, respectively. Further, the “percent recovery of 13C” value in data set [2] is 0.15+/−0.073%.

As to `CC(=O)NC(CCC([15NH2])=O)C(=O)O` (centres unmarked) [N-acetyl-5-^15N-glutamine], the “normalized 15N/13C GFAT-MRI1” value in data set [3] was 24.

`CCO[13C](=O)[C@H](CC)NC(=O)[C@@H]1CCCN1C(=O)CNC(=O)OCc1ccccc1` [Prolyl oligopeptidase Metaprobe, N-carbobenzyloxy-glycyl-L-prolyl-L-2-aminobutyric [1-^13C] acid ethyl ester]: the “% Dose metabolized” value in data set [4] (Control, two hour incubation at 37° C.) is 30 ± 4 % Dose; in data set [4] (Test sample, ARDS) it was 54 ± 13 % Dose; in data set [5] (Rat Brain homogenate (acetone powder), Control), 44 ± 8 % Dose; in data set [5] (Rat Lung homogenate (acetone powder), Control), 24 ± 12 % Dose; in data set [5] (Rat Plasma, Control) it was 2 ± 4 % Dose; in data set [5] (Rat Plasma, Test sample, Sepsis), 8 ± 5 % Dose.

These data come from US6610270B1, “In vivo determination of metabolic function for use in therapy management” (Xanthus Life Sciences, Inc., priority 1998, dated 2003).
